Experiments:
[1] = target: T1, Muscarinic acetylcholine receptor (Rattus norvegicus) (UniProt P08482+P08483+P08485+P08911+P10980)
Description: In vitro binding affinity against cortical muscarinic acetylcholine receptor measured by displacement of [3H]OXO-M.

[2] = target: T1, Muscarinic acetylcholine receptor (Rattus norvegicus); remark: listed apart in the source
Description: In vitro binding affinity against cortical muscarinic acetylcholine receptor measured by displacement of [3H]NMS.

SMILES: Nc1noc(C2CN3CCC2C3)n1 (stereo in doubt; 3b)
- K app [1]: 0.0051 µM

SMILES: Cc1ncc(C2CN3CCC2CC3)nc1C (configuration not stated)
- K app [1]: 0.0095 µM
- K app [2]: 0.078 µM

SMILES: Cc1cnc([C@H]2CN3CCC2C3)c(C)n1 (some centres not stated)
- K app [1]: 0.017 µM
- K app [2]: 0.75 µM

SMILES: Clc1cncc(C2CN3CCC2C3)n1 (configuration not stated)
- K app [1]: 0.00056 µM
- K app [2]: 0.21 µM

SMILES: Cc1ncc([C@H]2CN3CCC2C3)nc1C (some centres not stated)
- K app [1]: 0.015 µM
- K app [2]: 0.28 µM

SMILES: CCOc1cncc(C2CN3CCC2CC3)n1 (configuration not stated)
- K app [1]: 0.0021 µM
- K app [2]: 0.019 µM

SMILES: COc1cncc([C@H]2CN3CCCC2C3)n1 (some centres not stated)
- K app [1]: 0.087 µM
- K app [2]: 1.2 µM

SMILES: COc1cncc([C@H]2CN3CCC2C3)n1 (some centres not stated)
- K app [1]: 0.038 µM
- K app [2]: 0.96 µM

SMILES: Cc1nccnc1[C@@H]1CN2CCC1C2 (some centres not stated)
- K app [1]: 0.0016 µM
- K app [2]: 5.2 µM

SMILES: Cc1cnc(C)c(C2CN3CCC2CC3)n1 (configuration not stated)
- K app [1]: 0.026 µM
- K app [2]: 0.26 µM

SMILES: Cc1nccnc1[C@H]1CN2CCC1C2 (some centres not stated)
- K app [1]: 0.00026 µM
- K app [2]: 0.21 µM

SMILES: Cc1ncc(C2CN3CCC2CC3)cn1 (configuration not stated)
- K app [1]: 0.091 µM
- K app [2]: 1.5 µM

SMILES: Cc1nc(C)c([C@@H]2CN3CCC2C3)nc1C (some centres not stated)
- K app [1]: 0.25 µM
- K app [2]: 1.6 µM

SMILES: CCCc1nccnc1C1CN2CCC1C2 (configuration not stated)
- K app [1]: 0.015 µM
- K app [2]: 0.35 µM

SMILES: c1cnc(C2CN3CCC2CC3)cn1 (configuration not stated)
- K app [1]: 0.00068 µM
- K app [2]: 0.27 µM

SMILES: Cc1nc(C)c([C@H]2CN3CCC2C3)nc1C (some centres not stated)
- K app [1]: 0.053 µM
- K app [2]: 0.35 µM

SMILES: CC(C)Oc1cncc([C@H]2CN3CCC2C3)n1 (some centres not stated)
- K app [1]: 0.031 µM
- K app [2]: 0.13 µM

SMILES: Brc1cncc(C2CN3CCC2CC3)n1 (configuration not stated)
- K app [1]: 0.001 µM
- K app [2]: 0.033 µM

SMILES: CCc1nccnc1[C@@H]1CN2CCC1C2 (some centres not stated)
- K app [1]: 0.14 µM
- K app [2]: 2.2 µM

SMILES: Cc1cnc(C)c([C@H]2CN3CCC2C3)n1 (some centres not stated)
- K app [1]: 0.011 µM
- K app [2]: 0.19 µM

SMILES: Cc1cnc(C)c([C@@H]2CN3CCC2C3)n1 (some centres not stated)
- K app [1]: 0.13 µM
- K app [2]: 3 µM

SMILES: C#CCOc1cncc(C2CN3CCC2C3)n1 (configuration not stated)
- K app [1]: 0.0088 µM
- K app [2]: 0.15 µM

SMILES: CN(C)c1cncc([C@H]2CN3CCC2C3)n1 (some centres not stated)
- K app [1]: 0.057 µM
- K app [2]: 0.86 µM

SMILES: Cc1cnc([C@@H]2CN3CCC2C3)c(C)n1 (some centres not stated)
- K app [1]: 0.66 µM
- K app [2]: 6.2 µM

SMILES: COc1cncc([C@@H]2CN3CCC2C3)n1 (some centres not stated)
- K app [1]: 0.0098 µM
- K app [2]: 0.46 µM

SMILES: CCc1cncc(C2CN3CCC2C3)n1 (stereo in doubt; 27a)
- K app [1]: 0.0095 µM
- K app [2]: 0.13 µM

SMILES: Cc1cncc([C@@H]2CN3CCC2C3)n1 (some centres not stated)
- K app [1]: 0.0015 µM
- K app [2]: 0.47 µM

SMILES: Cc1ncc([C@@H]2CN3CCC2C3)nc1C (some centres not stated)
- K app [1]: 0.013 µM
- K app [2]: 0.53 µM

SMILES: CC(C)c1nccnc1C1CN2CCC1C2 (configuration not stated)
- K app [1]: 0.022 µM
- K app [2]: 0.48 µM

SMILES: CCc1nccnc1[C@H]1CN2CCC1C2 (some centres not stated)
- K app [1]: 0.02 µM
- K app [2]: 0.69 µM

SMILES: c1cnc([C@H]2CN3CCC2C3)cn1 (some centres not stated)
- K app [1]: < 8.6e-05 µM
- K app [2]: 0.059 µM

SMILES: Cc1nccnc1C1CN2CCC1CC2 (configuration not stated)
- K app [1]: 0.01 µM
- K app [2]: 1.51 µM

SMILES: c1ncc(C2CN3CCC2CC3)cn1 (configuration not stated)
- K app [1]: 0.16 µM
- K app [2]: 2.8 µM

SMILES: Clc1ccc(C2CN3CCC2CC3)nn1 (configuration not stated)
- K app [1]: 0.098 µM
- K app [2]: 3.5 µM

SMILES: COc1cncc(C2CN3CCC2CC3)n1 (configuration not stated)
- K app [1]: 0.0076 µM
- K app [2]: 0.14 µM

SMILES: Clc1cncc(C2CN3CCC2CC3)n1 (configuration not stated)
- K app [1]: 0.00087 µM
- K app [2]: 0.051 µM

SMILES: CCc1cncc(C2CN3CCC2CC3)n1 (configuration not stated)
- K app [1]: 0.0017 µM
- K app [2]: 0.02 µM

SMILES: COc1cncc([C@@H]2CN3CCCC2C3)n1 (some centres not stated)
- K app [1]: 0.0093 µM
- K app [2]: 0.19 µM

SMILES: CN(C)c1cncc([C@@H]2CN3CCC2C3)n1 (some centres not stated)
- K app [1]: 0.07 µM
- K app [2]: 0.03 µM

SMILES: C=CCOc1cncc([C@@H]2CN3CCC2C3)n1 (some centres not stated)
- K app [1]: 0.021 µM
- K app [2]: 0.12 µM

SMILES: c1cnc([C@@H]2CN3CCC2C3)cn1 (some centres not stated)
- K app [1]: 0.0007 µM
- K app [2]: 1.6 µM

SMILES: c1cnc([C@H]2CN3CCCC2C3)cn1 (some centres not stated)
- K app [1]: 0.00084 µM
- K app [2]: 0.4 µM

SMILES: Oc1cncc(C2CN3CCC2CC3)n1 (configuration not stated)
- K app [1]: 0.28 µM
- K app [2]: 27 µM

SMILES: c1cnc([C@@H]2CN3CCCC2C3)cn1 (some centres not stated)
- K app [1]: 0.014 µM
- K app [2]: 1.5 µM

SMILES: Cc1cncc([C@H]2CN3CCC2C3)n1 (some centres not stated)
- K app [1]: 0.0014 µM
- K app [2]: 0.18 µM

SMILES: CC(C)Oc1cncc([C@@H]2CN3CCC2C3)n1 (some centres not stated)
- K app [1]: 0.012 µM
- K app [2]: 0.049 µM

SMILES: C=CCOc1cncc([C@H]2CN3CCC2C3)n1 (some centres not stated)
- K app [1]: 0.03 µM
- K app [2]: 0.23 µM

SMILES: CCc1cncc(C2CN3CCC2C3)n1 (stereo in doubt; 27b)
- K app [1]: 0.0021 µM
- K app [2]: 0.15 µM

SMILES: Cc1cncc(C2CN3CCC2CC3)n1 (configuration not stated)
- K app [1]: 0.0021 µM
- K app [2]: 0.066 µM

Source: ChEMBL document CHEMBL1126146, “Synthesis and muscarinic activity of quinuclidinyl- and (1-azanorbornyl)pyrazine derivatives” (J Med Chem, 1992)
